Measured values reported in ChEMBL document CHEMBL1201862, “PubChem BioAssay data set” (2004).
Activity calls are given as the source filed them.

Legend:
[1] = biological target: Neuropeptide Y receptor type 2 (Homo sapiens, UniProt P49146); assay: NPY-Y2 antagonist potency, selectivity check, dose response, counter-screen for NPY-Y1 antagonist project, cell-based (AID 1278); assay type: functional
[2] = biological target: Neuropeptide Y receptor type 1 (Homo sapiens, UniProt P25929); assay: NPY-Y1 receptor antagonist potency, dose response, cell-based (AID 1277); assay type: functional
Sequence of Neuropeptide Y receptor type 1 (P25929 whole entry): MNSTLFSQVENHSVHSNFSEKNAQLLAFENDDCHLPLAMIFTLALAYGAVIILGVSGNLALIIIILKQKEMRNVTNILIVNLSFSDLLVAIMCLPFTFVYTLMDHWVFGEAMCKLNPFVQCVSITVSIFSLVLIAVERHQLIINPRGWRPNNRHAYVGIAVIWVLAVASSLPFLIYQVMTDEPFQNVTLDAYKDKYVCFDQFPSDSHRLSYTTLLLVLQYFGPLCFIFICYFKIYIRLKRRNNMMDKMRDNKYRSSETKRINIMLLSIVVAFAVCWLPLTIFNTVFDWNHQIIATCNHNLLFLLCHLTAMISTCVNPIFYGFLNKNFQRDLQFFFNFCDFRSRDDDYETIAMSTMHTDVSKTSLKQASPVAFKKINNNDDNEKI

Jurkat = assay: antigen receptor-induced NF-kB inhibitors, dose response, Jurkat, luciferase reporter, luminescence, B- and T-cell (AID 489004); assay type: functional, cell-based; settings: Homo sapiens;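 further: NF-kB luciferase reporter Jurkat cells stimulated with PMA plus ionomycin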
[3] = cytotoxicity in HEK-293T NF-kB-Luc cells, dose response, cytotoxicity control for B/T-cell NF-kB inhibitor project, cell-based, uHTS hits (AID 489019); assay type: functional;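 further: IC50 reflects cytotoxicity as loss of cell viability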
INS1 = assay: beta cell apoptosis inhibitors, cytokine rescue, dose response, luminescence, retest (AID 449756); assay type: functional, cell-based; settings: Rattus norvegicus;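 further: cell death triggered by IL-1 beta plus TNF-alpha plus IFN-gamma mixture; protective hits raise ATP signal compared with cytokine alone wells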
A-375 [4] = assay: MITF: Counter assay: A375 proliferation Measured in Cell-Based System Using Plate Reader - 2084-03_Inhibitor_Dose_DryPowder_Activity. [Related pubchem assays (depositor defined):AID488944]; assay type: functional; settings: Homo sapiens
A-375 [5] = assay: A375 melanoma cell viability reduction, dose response, counter-screen for MITF modulator project, cherry-pick samples, set 2 (AID 540335); assay type: functional, cell-based; settings: Homo sapiens
[6] = inhibitors of firefly luciferase expression or activity, dose response, H4 neuroglioma cells, luminescence (AID 1990); assay type: functional, cell-based
[7] = Luminescence Cell-Based Dose Response HTS to Identify Inhibitors of 5'UTR Stem-Loop Driven Prion Protein mRNA Translation in H4 Neuroglioblastoma Cells. [Related pubchem assays: 1827 (Project Summary), 1813 (Primary HTS)]; assay type: functional
[8] = inhibitors of SNCA 5'UTR-driven reporter translation, confirmation, H4 neuroglioma cells, luminescence (AID 1988); assay type: functional, cell-based
Escherichia coli [9] = assay: microbe, parasite or virus in culture
Escherichia coli [10] = assay: microbe, parasite or virus in culture; remark: listed apart in the source
Candida albicans [11] = assay: growth inhibition of resistant C. albicans, dose response, CaCi-8 strain, fluconazole, dry powder, set 4 (AID 488950); assay type: functional, organism-based
Candida albicans [12] = assay: fluconazole resistance reversal in C. albicans, dose response, CaCi-2 strain, Alamar Blue, dry powder, set 4 (AID 488943); assay type: functional, organism-based
Candida albicans [13] = assay: growth inhibition of azole-resistant C. albicans, dose response, CaCi-8 strain, Alamar Blue, dry powder, set 3 (AID 488905); assay type: functional, organism-based
Candida albicans [14] = assay: reversal of fluconazole resistance in C. albicans, dose response, CaCi-2 strain, Alamar Blue, dry powder, set 3 (AID 488907); assay type: functional, organism-based

Sequence of Neuropeptide Y receptor type 2 (P49146 whole entry): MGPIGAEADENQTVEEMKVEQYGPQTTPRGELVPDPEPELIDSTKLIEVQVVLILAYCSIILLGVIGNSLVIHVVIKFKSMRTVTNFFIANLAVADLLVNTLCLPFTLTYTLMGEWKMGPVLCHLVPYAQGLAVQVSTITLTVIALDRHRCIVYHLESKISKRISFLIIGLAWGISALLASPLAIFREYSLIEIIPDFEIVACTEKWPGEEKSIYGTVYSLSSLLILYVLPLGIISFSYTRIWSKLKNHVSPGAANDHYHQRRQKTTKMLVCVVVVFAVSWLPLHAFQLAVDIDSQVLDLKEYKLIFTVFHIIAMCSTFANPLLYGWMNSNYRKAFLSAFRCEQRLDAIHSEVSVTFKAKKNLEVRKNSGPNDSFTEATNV

For `CCN(CC)S(=O)(=O)c1ccc(Oc2ccc(S(=O)(=O)N(CC)CC)cc2)cc1`, the IC50 [1] was > 35 µM (not active), the IC50 [2] was > 35 µM (not active) and the IC50 (Jurkat) was > 80 µM (inactive). The IC50 [3] was > 80 µM (inactive) and the AC50 (INS1) was 2.23 µM (active).

For `Cn1c(/C(C#N)=C/c2ccc(-c3ccc(S(N)(=O)=O)cc3)o2)nc2ccccc21`, the AC50 (A-375 [4]) was > 11 µM (active) and the AC50 (A-375 [5]) was > 11 µM (active).

For `O=C(O)CCCc1nc(-c2ccc(Cl)cc2)no1`, the EC50 [6] was 27.1 µM (active), the EC50 [7] was 23.1 µM (active) and the EC50 [8] was 16.2 µM (active). For the same molecule, the AC50 (Escherichia coli [9]) was 39 µM (active).

With `Cc1nnc(SCc2ccccc2CSc2nnc(C)s2)s1` the AC50 (Escherichia coli [10]) was 111 µM (active).

With `Cc1ccc(N2CCN(C(=O)c3ccc(Cl)cc3)CC2)nn1` the AC50 (Candida albicans [11]) was 4.41 µM (active), the AC50 (Candida albicans [12]) was 1.64 µM (active) and the AC50 (Candida albicans [13]) was 103 µM (active). For the same molecule, the AC50 (Candida albicans [14]) was 8.19 µM (active).
